{"source": "patent US4341779A", "about": "“Esters of amidinepenicillins” (priority 1978, dated 1982)", "key": {"[1]": {"details": "rat, in vivo"}, "arterial pressure": {"system": "arterial pressure", "assay": "effect onto the arterial pressure of experimental animals", "type": "in vivo", "details": "on the contrary to Pivmecillinam"}, "mice": {"system": "mice", "assay": "LD50 after administration per os in mice"}, "[2]": {"assay": "comparative levels of 6-/N,N-1',6'-hexyleneformamidine/-penicillanic acid in blood serum, livers, lungs and kidneys of rats after per os administration (Table 2)", "type": "in vivo", "from_the_text": "The results of the measurements, expressed in μg/ml are specified in Table 2."}, "in vivo": {"assay": "in vivo", "details": "mouse, po"}, "[3]": {"assay": "levels of free acid in serum and organs of rats after per os administration of the aminopropyl dihydrochloride", "type": "in vivo"}, "[4]": {"assay": "LD50 after administration per os in mice", "details": "mouse, in vivo, po, LD50, mice, per os"}}, "note": "Counter-ions that a name gives are not always drawn. Like-named read-outs stand apart in the source and are kept apart here.", "data": [{"smiles": "CC1(C)S[C@@H]2[C@H](N=CN3CCCCCC3)C(=O)N2[C@H]1C(=O)O", "note": "[6-/N,N-1', 6'-hexyleneformamidine/-penicillanic acid, reference compound]", "values": [{"measurement": "level of free acid in blood serum", "setting": "[1]; po, 5 min", "value": 300, "unit": "ng/mL"}, {"measurement": "level of free acid in blood serum", "setting": "[1]; po, 10 min", "value": 900, "unit": "ng/mL"}, {"measurement": "level of free acid in blood serum", "setting": "[1]; po, 0.25 h", "value": 1700, "unit": "ng/mL"}, {"measurement": "level of free acid in blood serum", "setting": "[1]; po, 0.5 h", "value": 1800, "unit": "ng/mL"}, {"measurement": "level of free acid in blood serum", "setting": "[1]; po, 0.75 h", "value": 1900, "unit": "ng/mL"}, {"measurement": "level of free acid in blood serum", "setting": "[1]; po, 1 h", "value": 1900, "unit": "ng/mL"}, {"measurement": "level of free acid in blood serum", "setting": "[1]; po, 2 h", "value": 1600, "unit": "ng/mL"}, {"measurement": "level of free acid in blood serum", "setting": "[1]; po, 3 h", "value": 1300, "unit": "ng/mL"}, {"measurement": "level of free acid in blood serum", "setting": "[1]; po, 4 h", "value": 800, "unit": "ng/mL"}, {"measurement": "level of free acid in blood serum", "setting": "[1]; po, 5 h", "value": 600, "unit": "ng/mL"}, {"measurement": "level of free acid in blood serum", "setting": "[1]; po, 6 h", "value": 500, "unit": "ng/mL"}]}, {"smiles": "CC(=O)COC(=O)[C@@H]1N2C(=O)[C@@H](N=CN3CCCCCC3)[C@H]2SC1(C)C", "note": "[Hydrochloride of methylacetic ester of 6-/N,N1', 6'-hexylene] [hydrochloride of methylacetic ester of 6-/N, N-1', 6'-hexyleneformamidine/-penicillanic acid]", "values": [{"measurement": "effect onto the arterial pressure", "setting": "arterial pressure", "value": "no effect"}, {"measurement": "level of free acid in blood serum", "setting": "[1]; 5 min", "value": 12900, "unit": "ng/mL"}, {"measurement": "level of free acid in blood serum", "setting": "[1]; 10 min", "value": 14300, "unit": "ng/mL"}, {"measurement": "level of free acid in blood serum", "setting": "[1]; 15 min", "value": 16400, "unit": "ng/mL"}, {"measurement": "level of free acid in blood serum", "setting": "[1]; 30 min", "value": 16100, "unit": "ng/mL"}, {"measurement": "level of free acid in blood serum", "setting": "[1]; 45 min", "value": 18900, "unit": "ng/mL"}, {"measurement": "level of free acid in blood serum", "setting": "[1]; 60 min", "value": 14400, "unit": "ng/mL"}, {"measurement": "level of free acid in blood serum", "setting": "[1]; 120 min", "value": 9100, "unit": "ng/mL"}, {"measurement": "level of free acid in blood serum", "setting": "[1]; 180 min", "value": 2100, "unit": "ng/mL"}, {"measurement": "level of free acid in blood serum", "setting": "[1]; 240 min", "value": 1000, "unit": "ng/mL"}, {"measurement": "level of free acid in blood serum", "setting": "[1]; 300 min", "value": 800, "unit": "ng/mL"}, {"measurement": "level of free acid in blood serum", "setting": "[1]; 360 min", "value": 100, "unit": "ng/mL"}, {"measurement": "LD50", "setting": "mice; mice, per os, listed as hydrochloride of said ester", "value": "over 5 g/kg of the body weight"}]}, {"smiles": "CC(=O)COC(=O)[C@@H]1N2C(=O)[C@@H](N=CN3CCCCCC3)[C@H]2SC1(C)C", "note": "[Methylacetic ester of 6-N,N-1', 6'-hexyleneformamidine/-peni] [methylacetic ester of 6-/N,N-1', 6'-hexyleneformamidine/-penicillanic acid]", "values": [{"measurement": "maximum level in kidneys relative to equivalent dose of Pivmecillinam", "setting": "[2]; kidneys", "value": "three times"}, {"measurement": "maximum level in the liver relative to equivalent dose of Pivmecillinam", "setting": "[2]; liver", "value": "over two times higher"}, {"measurement": "maximum levels in the lungs, ester and Pivmecillinam compared", "setting": "[2]; lungs, equivalent doses", "value": "approximate ones"}, {"measurement": "effect onto the arterial pressure", "setting": "arterial pressure", "value": "no effect"}, {"measurement": "levels of free acid in the serum, comparison of preparations", "setting": "[1]", "value": "highest levels"}, {"measurement": "maximum serum level relative to equivalent dose of Pivmecillinam", "setting": "[1]", "value": "over two times higher"}, {"measurement": "maximum serum level relative to equivalent dose of corresponding free acid", "setting": "[1]", "value": "over twenty times higher"}, {"measurement": "level of free acid in blood serum", "setting": "[1]; 5 min", "value": 29300, "unit": "ng/mL"}, {"measurement": "level of free acid in blood serum", "setting": "[1]; 10 min", "value": 35000, "unit": "ng/mL"}, {"measurement": "level of free acid in blood serum", "setting": "[1]; 15 min", "value": 42700, "unit": "ng/mL"}, {"measurement": "level of free acid in blood serum", "setting": "[1]; 30 min", "value": 21100, "unit": "ng/mL"}, {"measurement": "level of free acid in blood serum", "setting": "[1]; 45 min", "value": 21200, "unit": "ng/mL"}, {"measurement": "level of free acid in blood serum", "setting": "[1]; 60 min", "value": 16900, "unit": "ng/mL"}, {"measurement": "level of free acid in blood serum", "setting": "[1]; 120 min", "value": 4900, "unit": "ng/mL"}, {"measurement": "level of free acid in blood serum", "setting": "[1]; 180 min", "value": 1600, "unit": "ng/mL"}, {"measurement": "level of free acid in blood serum", "setting": "[1]; 240 min", "value": 800, "unit": "ng/mL"}, {"measurement": "level of free acid in blood serum", "setting": "[1]; 300 min", "value": 600, "unit": "ng/mL"}, {"measurement": "level of free acid in blood serum", "setting": "[1]; 360 min", "value": 300, "unit": "ng/mL"}, {"measurement": "toxicity compared with Pivascillinam", "setting": "mice; compared with Pivascillinam", "value": "toxicity lower than that of Pivascillinam"}]}, {"smiles": "CC(C)(C)C(=O)OCOC(=O)[C@@H]1N2C(=O)[C@@H](/N=C/N3CCCCCC3)[C@H]2SC1(C)C", "note": "[Pivmecillinam, hydrochloride of pivaloyl-oxymethyl ester of 6-/N,N-1',6'-hecylaneformamidine/-penicillanicacid, reference compound]", "values": [{"measurement": "level of free acid in blood serum", "setting": "[1]; 5 min", "value": 6300, "unit": "ng/mL"}, {"measurement": "level of free acid in blood serum", "setting": "[1]; 10 min", "value": 12700, "unit": "ng/mL"}, {"measurement": "level of free acid in blood serum", "setting": "[1]; 15 min", "value": 15500, "unit": "ng/mL"}, {"measurement": "level of free acid in blood serum", "setting": "[1]; 30 min", "value": 19200, "unit": "ng/mL"}, {"measurement": "level of free acid in blood serum", "setting": "[1]; 45 min", "value": 16300, "unit": "ng/mL"}, {"measurement": "level of free acid in blood serum", "setting": "[1]; 60 min", "value": 14700, "unit": "ng/mL"}, {"measurement": "level of free acid in blood serum", "setting": "[1]; 120 min", "value": 7900, "unit": "ng/mL"}, {"measurement": "level of free acid in blood serum", "setting": "[1]; 180 min", "value": 2100, "unit": "ng/mL"}, {"measurement": "level of free acid in blood serum", "setting": "[1]; 240 min", "value": 1800, "unit": "ng/mL"}, {"measurement": "level of free acid in blood serum", "setting": "[1]; 300 min", "value": 1500, "unit": "ng/mL"}, {"measurement": "level of free acid in blood serum", "setting": "[1]; 360 min", "value": 1100, "unit": "ng/mL"}, {"measurement": "LD50", "setting": "in vivo", "value": 2600, "unit": "mg/kg"}]}, {"smiles": "CC(=O)COC(=O)[C@@H]1N2C(=O)[C@@H](N=CN3CCC(CCCN)CC3)[C@H]2SC1(C)C", "note": "[dihydrochloride of ester methylacetic of 6-{N,N-[3'-(γ-aminopropyl)-1',5'-pentileneformamidine]}-penicillanicacid]", "values": [{"measurement": "levels of free acid in serum and organs relative to equivalent dose of corresponding free acid", "setting": "[3]", "value": "multiply higher"}]}, {"smiles": "CC(=O)COC(=O)[C@@H]1N2C(=O)[C@@H](N=CN3CCCCCC3)[C@H]2SC1(C)C", "note": "[methylacetic ester of 6-/N,N-1', 6'-hexyleneformamidine/-penicillanic acid]", "values": [{"measurement": "LD50", "setting": "[4]", "value": "> 3000", "unit": "mg/kg"}]}]}
